In US11415579B2, “Assay for measuring a rate of reaction between a target and a ligand candidate” (Imperial College Innovations Ltd., priority 2016, dated 2022):

Tests used:
[1] = Kinetic thiol consumption assay with model thiol glutathione; format: physicochemical; parameters: Rate constant with glutathione (k(GSH)): unit not given here; conditions: for Rate constant with glutathione (k(GSH)): 500 μM ligand, 5 μM thiol, phosphate buffer pH 8; for Rate constant with Glutathione: Protein: Glutathione, cysteine position NA, in h-1
Method in brief: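 Rate constants for acrylamide reaction with 5 μM glutathione come from first-order exponential fits of normalized fluorescence decay (ex 380, em 470 nm). Reactions run in degassed phosphate buffer at pH 8 containing TCEP beads, room temperature.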

Cdk2[C177A, F80C, K278C] = target: T1, Cdk2[C177A, F80C, K278C] (Homo sapiens, UniProt P24941, C177A/F80C/K278C); test: Kinetic thiol consumption assay with mutant Cdk2 as model thiol; format: binding; parameters: unit not given here; conditions: 500 μM ligand, 5 μM thiol, phosphate buffer pH 8
T1 construct: poly-histidine; made in house; host or cells: E. coli
Procedure: A library of 120 acrylamides was screened against a) human cyclin-dependent kinase 2 (Cdk2, which contains one surface exposed cysteine residue—C177), prepared by cloning cDNA into the pRSETA bacterial expression vector to generate a poly-histidine tagged Cdk2 fusion that was purified from E. coli using standard techniques, and b) a model thiol (specific details are given below). The structures of these 120 acrylamides are set out in Table 1, above.
To wells containing 150 μL thiol (Cdk2 or model thiol) (5 μM) in degassed phosphate buffer (pH 8) was added immobilized TCEP beads (2% v/v).
After incubation of the fluorescence plates for 1 hour at room temperature, fluorescence measurements (excitation/emission of 380/470 nm) were taken on a PerkinElmer EnVision multilabel plate reader and processed with EnVision Workstation version 1.12.
Fluorescence measurements were normalized against a DMSO/thiol only control and plotted against time.
Rate constants were calculated using GraphPad software Prism version 6 by fitting a first order exponential decay to the data. The rate constant for each acrylamide with Cdk2 was divided by the rate constant for that fragment with the model thiol to provide the rate enhancement for each ligand candidate.
The model thiol used in Example 2 is a mutant form of human Cdk2 (C177A, F80C, K278C) which contains two engineered surface exposed cysteine residues. Mutations were introduced by site-directed mutagenesis and the resulting cDNA was cloned into the pRSETA bacterial expression vector to generate a poly-histidine tagged Cdk2 fusion that was purified from E. coli using standard techniques.

[2] = target: T2, human cyclin-dependent kinase 2 (Cdk2) (Homo sapiens, UniProt P24941); test: Kinetic thiol consumption assay with wild type Cdk2 (C177); format: binding; parameters: key to Rate enhancement, Cdk2 WT: k(Cdk2) divided by k(model thiol); Rate constant with Cdk2 (k(Cdk2)): unit not given here; conditions: for Rate constant with Cdk2 (k(Cdk2)): 500 μM ligand, 5 μM thiol, phosphate buffer pH 8; for k(Cdk2)/k(Cdk2_mut) rate enhancement: model thiol Cdk2[C177A, F80C, K278C]; for k(Cdk2)/k(GSH) rate enhancement: model thiol glutathione; for Rate enhancement, Cdk2 WT: no additional mutations; for Rate constant with Cdk2 WT: Protein: Cdk2, cysteine position WT, in h^-1
T2 construct: poly-histidine; made in house; host or cells: E. coli
Method in brief: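 Rate constants came from first-order exponential decay fits of normalized fluorescence against time, with thiol (5 μM) in degassed pH 8 phosphate buffer containing 2% v/v TCEP beads and reads after 1 h at room temperature.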

Cdk2(T182C) (C177A) = target: T3, Cdk2(T182C) (C177A) (Homo sapiens, UniProt P24941, C177A/T182C); test: Kinetic thiol consumption assay with Cdk2 mutant T182C; format: binding; parameters: key to Rate enhancement, Cdk2 T182C: rate constant with Cdk2 ÷ rate constant with model thiol (fold); conditions: additional mutation C177A; for Rate constant with Cdk2 T182C: Protein: Cdk2, cysteine position T182C, in h^-1
T3 construct: poly-histidine; made in house; host or cells: E. coli
Method in brief: (§1)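 Read-out is fluorescence at 380/470 nm, taken after 1 h at room temperature and normalized to a DMSO/thiol-only control over time. Thiol (5 μM Cdk2 mutant or model thiol) was in degassed pH 8 phosphate buffer with 2% v/v TCEP beads. Acrylamide rate constants for Cdk2 were divided by those with model thiol.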

Cdk2(H71C) (C177A) = target: T4, Cdk2(H71C) (C177A) (Homo sapiens, UniProt P24941, C177A/H71C); test: Kinetic thiol consumption assay with Cdk2 mutant H71C; format: binding; parameters: key to Rate enhancement, Cdk2 H71C: rate constant with Cdk2 ÷ rate constant with model thiol (fold); conditions: additional mutation C177A; for Rate constant with Cdk2 H71C: Protein: Cdk2, cysteine position H71C, in h^-1
T4 construct: poly-histidine; made in house; host or cells: E. coli
Method in brief: as §1

Cdk2(N272C) (C177A) = target: T5, Cdk2(N272C) (C177A) (Homo sapiens, UniProt P24941, C177A/N272C); test: Kinetic thiol consumption assay with Cdk2 mutant N272C; format: binding; parameters: key to Rate enhancement, Cdk2 N272: rate constant with Cdk2 ÷ rate constant with model thiol (fold); conditions: for Rate enhancement, Cdk2 N272: Cdk2 N272, additional mutation C177A; for Rate constant with Cdk2 N272C: Protein: Cdk2, cysteine position N272C, additional mutation C177A, in h^-1
T5 construct: poly-histidine; made in house; host or cells: E. coli
Method in brief: as §1

Cdk2(S181C) (C177A) = target: T6, Cdk2(S181C) (C177A) (Homo sapiens, UniProt P24941, C177A/S181C); test: Kinetic thiol consumption assay with Cdk2 mutant S181C; format: binding; parameters: key to Rate enhancement, Cdk2 S181C: rate constant with Cdk2 ÷ rate constant with model thiol (fold); conditions: additional mutation C177A; for Rate constant with Cdk2 S181C: Protein: Cdk2, cysteine position S181C, in h^-1
T6 construct: poly-histidine; made in house; host or cells: E. coli
Method in brief: as §1

Cdk2(R122C) (C177A) = target: T7, Cdk2(R122C) (C177A) (Homo sapiens, UniProt P24941, C177A/R122C); test: Kinetic thiol consumption assay with Cdk2 mutant R122C; format: binding; parameters: key to Rate enhancement, Cdk2 R122C: rate constant with Cdk2 ÷ rate constant with model thiol (fold); conditions: additional mutation C177A; for Rate constant with Cdk2 R122C: Protein: Cdk2, cysteine position R122C, in h-1
T7 construct: poly-histidine; made in house; host or cells: E. coli
Method in brief: as §1

Cdk2(S276C) (C177A) = target: T8, Cdk2(S276C) (C177A) (Homo sapiens, UniProt P24941, C177A/S276C); test: Kinetic thiol consumption assay with Cdk2 mutant S276C; format: binding; parameters: key to Rate enhancement, Cdk2 S276C: rate constant with Cdk2 ÷ rate constant with model thiol (fold); conditions: additional mutation C177A; for Rate constant with Cdk2 S276C: Protein: Cdk2, cysteine position S276C, in h^-1
T8 construct: poly-histidine; made in house; host or cells: E. coli
Method in brief: as §1

Cdk2(C177A, F80C) = target: T9, Cdk2(C177A, F80C) (Homo sapiens, UniProt P24941, C177A/F80C); test: Kinetic thiol consumption assay with Cdk2 mutant F80C, incl. kobs versus concentration (Kd, k2); format: binding; parameters: key to Rate enhancement, Cdk2 F80C: Cdk2 rate constant divided by model-thiol rate constant; conditions: additional mutation C177A
T9 construct: poly-histidine; made in house; host or cells: E. coli
Method in brief: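 His-tagged Cdk2(C177A/F80C) from E. coli or model thiol, 5 μM in degassed phosphate buffer pH 8 with TCEP beads, reacted with acrylamide ligands; fluorescence (ex/em 380/470 nm) normalized to DMSO control and fitted to first-order decay for kobs. Kd and k2 obtained from hyperbolic fit of kobs versus ligand concentration.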

| SMILES | Rate constant with glutathione (k(GSH)) [1] | Rate constant with Cdk2[C177A, F80C, K278C] (k(Cdk2_mut)) (Cdk2[C177A, F80C, K278C]) | Rate constant with Cdk2 (k(Cdk2)) [2] | k(Cdk2)/k(Cdk2_mut) rate enhancement [2] | k(Cdk2)/k(GSH) rate enhancement [2] | Rate enhancement, Cdk2 T182C (Cdk2(T182C) (C177A)) | Rate constant with Cdk2 T182C (Cdk2(T182C) (C177A)) | Rate enhancement, Cdk2 H71C (Cdk2(H71C) (C177A)) | Rate constant with Cdk2 H71C (Cdk2(H71C) (C177A)) | Rate enhancement, Cdk2 N272 (Cdk2(N272C) (C177A)) | Rate constant with Cdk2 N272C (Cdk2(N272C) (C177A)) | Rate enhancement, Cdk2 S181C (Cdk2(S181C) (C177A)) | Rate constant with Cdk2 S181C (Cdk2(S181C) (C177A)) | Rate enhancement, Cdk2 WT [2] | Rate constant with Cdk2 WT [2] | Rate enhancement, Cdk2 R122C (Cdk2(R122C) (C177A)) | Rate constant with Cdk2 R122C (Cdk2(R122C) (C177A)) | Rate enhancement, Cdk2 S276C (Cdk2(S276C) (C177A)) | Rate constant with Cdk2 S276C (Cdk2(S276C) (C177A)) | Rate enhancement, Cdk2 F80C (Cdk2(C177A, F80C)) | further results |
| --- | --- | --- | --- | --- | --- | --- | --- | --- | --- | --- | --- | --- | --- | --- | --- | --- | --- | --- | --- | --- | --- |
| C=CC(=O)N(c1cccc2ncccc12)C1CCC1 [CA-032] | 0.01642 | 0.01104 | 0.02299 | 2.082 | 1.4 |  |  |  |  |  |  |  |  |  |  |  |  |  |  |  |  |
| C=CC(=O)N1CCn2c(C(=O)NC3CC3)ccc2C1C (stereo not drawn) [CA-040] | 0.0353 | 0.0302 | 0.02965 | 0.9818 | 0.8399 |  |  |  |  |  |  |  |  |  |  |  |  |  |  |  |  |
| C=CC(=O)N(C1CC1)C1CCCCC1C1CCCCC1 (stereo not drawn) [CA-081] | 0.00172 | 0.00475 | 0.00879 | 1.851 | 5.108 |  |  |  |  |  |  |  |  |  |  |  |  |  |  |  |  |
| C=CC(=O)N1CCCCCC1C/C=C/c1ccccc1 (stereo not drawn) [CA-096] | 0.01134 | 0.01283 | 0.0034 | 0.2652 | 0.3001 |  |  |  |  |  |  |  |  |  |  |  |  |  |  |  |  |
| C=CC(=O)N(Cc1ccco1)Cc1ccco1 [CA-099] | 0.23 | 0.0159 | 0.2899 | 18.23 | 1.26 |  |  |  |  |  |  |  |  |  |  |  |  |  |  |  |  |
| C=CC(=O)N1CCC2(CC1)NC(=O)C1(CCCCC1)N2 [CA-129] | 0.00771 | 0.00208 | 0.00274 | 1.317 | 0.3553 |  |  |  |  |  |  |  |  |  |  |  |  |  |  |  |  |
| C=CC(=O)Nc1ccccc1C#N [EL-1178] |  | 0.165 | 0.1611 | 0.9764 |  | 5.018 | 0.2419 | 0.5613 | 0.02706 | 0.1844 | 0.008888 | 0.5323 | 0.02566 | 3.342 | 0.1611 | 0.491 | 0.02367 | 0.934 | 0.04503 | 1.938 | Rate constant with Cdk2 F80C (Cdk2(C177A, F80C); Protein: Cdk2, cysteine position F80C, in h^-1): 0.09345 |
| O=C(CCl)N1CCCCCC1 [EN011] |  |  |  |  |  | 0.4574 | 0.06061 | 0.08604 | 0.0114 | 0.1463 | 0.01938 | 0.09796 | 0.01298 | 0.6051 | 0.08018 | 0.02161 | 0.002863 | 1.075 | 0.1424 | 0 | Rate constant with Glutathione [1]: 0.1325 |
| CC1CN(C(=O)CCl)CC(C)O1 (stereo not drawn) [EN012] |  |  |  |  |  | 0.3161 | 0.08536 | 0.03607 | 0.009738 | 0.1055 | 0.02849 | 0.067 | 0.01809 | 1.086 | 0.2933 | 0.02811 | 0.00759 | 0.5904 | 0.1594 | 0 | Rate constant with Glutathione [1]: 0.27 |
